Results on seven molecules are retold here after ChEMBL document CHEMBL1136735, “Design and synthesis of naphthalenic dimers as selective MT1 melatoninergic ligands” (J Med Chem, 2003).

For orientation: Ki means a measure of affinity in units of concentration, obtained from inhibition or displacement. Read a low Ki as a stronger hold on the target.

The target of assay [1] is T1, Melatonin receptor type 1B (Homo sapiens, UniProt P49286).
T1 sequence (P49286 whole entry): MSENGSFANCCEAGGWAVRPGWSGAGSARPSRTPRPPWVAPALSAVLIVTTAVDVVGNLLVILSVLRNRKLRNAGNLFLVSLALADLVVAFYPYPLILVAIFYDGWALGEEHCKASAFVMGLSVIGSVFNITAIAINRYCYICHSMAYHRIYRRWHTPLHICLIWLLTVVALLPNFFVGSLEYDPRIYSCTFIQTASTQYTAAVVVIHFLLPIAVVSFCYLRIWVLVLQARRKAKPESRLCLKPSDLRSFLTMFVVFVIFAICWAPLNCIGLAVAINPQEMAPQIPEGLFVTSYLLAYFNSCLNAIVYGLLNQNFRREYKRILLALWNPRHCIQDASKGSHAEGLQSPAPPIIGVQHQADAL
As to the kind of experiment: Binding affinity for human Melatonin receptor type 1B stably transfected in human embryonic kidney cells (HEK 293) using 2-[125I]iodomelatonin as radioligand. It is filed as cell-based, HEK293.

The target in assay [2] is T2, Melatonin receptor type 1A (Homo sapiens, UniProt P48039). As to the kind of experiment: Binding affinity for human Melatonin receptor type 1A stably transfected in human embryonic kidney cells (HEK 293) using 2-[125I]iodomelatonin as radioligand. It counts as cell-based, HEK293.
Assay [3] addresses T3, Melatonin receptor type 1B (Homo sapiens) (UniProt P49286).
T3 sequence (whole entry): T1 sequence (P49286 whole entry)
As to conditions: CHO.

The target of assay [4] is T2, Melatonin receptor type 1A. The note with it: CHO.

Activity calls are given as the source filed them. No cut-off for these calls is given here.

T2 sequence (P48039 whole entry): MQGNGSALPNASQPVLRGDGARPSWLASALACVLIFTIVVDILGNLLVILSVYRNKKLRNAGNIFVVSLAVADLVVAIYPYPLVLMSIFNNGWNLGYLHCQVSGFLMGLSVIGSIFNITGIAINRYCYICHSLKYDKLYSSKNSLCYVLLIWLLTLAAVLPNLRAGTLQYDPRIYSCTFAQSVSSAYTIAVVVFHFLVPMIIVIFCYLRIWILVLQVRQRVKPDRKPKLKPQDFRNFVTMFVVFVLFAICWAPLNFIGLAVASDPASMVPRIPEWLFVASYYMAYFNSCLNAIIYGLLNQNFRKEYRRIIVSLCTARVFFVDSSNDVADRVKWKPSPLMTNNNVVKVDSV

On to `CC(=O)NCCc1cccc2ccc(OCCCOc3ccc4cccc(CCNC(C)=O)c4c3)cc12`, for which the values for the Ki in assay [1] and in assay [2] were 112000 pM and 500 pM, respectively. Besides, the IA result in assay [3] and in assay [4] was “inactive” each time.
For `CC(=O)NCCc1cccc2ccc(OCCCCCCCCOc3ccc4cccc(CCNC(C)=O)c4c3)cc12`, the Ki in assay [1] came to 180 pM; in assay [2] it was 50 pM.
On to `CC(=O)NCCc1cccc2ccc(OCCCCCCOc3ccc4cccc(CCNC(C)=O)c4c3)cc12`, for which the figures for the Ki in assay [1] and in assay [2] were 2330 pM and 80 pM, respectively.
Consider `CC(=O)NCCc1cccc2ccc(OCCOc3ccc4cccc(CCNC(C)=O)c4c3)cc12`, for which the Ki was 182000 pM in assay [1] and 2050 pM in assay [2].
`CC(=O)NCCc1cccc2ccc(OCCCCOc3ccc4cccc(CCNC(C)=O)c4c3)cc12`: the inhibition constant (Ki) in assay [1] is 72700 pM; in assay [2] it was 600 pM.
Take `CC(=O)NCCc1cccc2ccc(OCCCCCOc3ccc4cccc(CCNC(C)=O)c4c3)cc12`: the inhibition constant Ki is 1740 pM in assay [1] and 50 pM in assay [2].
Take `CC(=O)NCCc1cccc2ccc(OCCCCCCCCCCOc3ccc4cccc(CCNC(C)=O)c4c3)cc12`: the Ki in assay [1] is 40 pM; in assay [2], 30 pM.
